The text below walks through data of patent US6531148B1, “Therapeutic agents” (Takara Shuzo Co., Ltd., priority 1998, dated 2003).

The test system of test [1] is NO production induced by LPS and IFN-γ in RAW264.7 cells. The test can be described thus: NO production inhibition test. The following applies: for inhibition of NO production induced by LPS and IFN-γ: NO2− in the medium, Griess' reagent. Format: cell-based. As to the method: (1) RAW264.7 cells (ATCC TIB 71) were suspended in Dulbecco's modified Eagle's medium (Bio Whittaker, 12-917F) without phenol red containing 10% fetal bovine serum (Gibco) and 2 mM L-glutamine (Life Technologies Oriental, 25030-149) at a concentration of 3×10^5 cells/ml. 500 μl of the suspension was added to each well of a 48-well microtiter plate and the plate was incubated at 37° C. for 12 hours in the presence of 5% CO2. 10 μl of an aqueous solution containing 25 μg/ml lipopolysaccharide (LPS, Sigma, L-2012) and 500 U/ml interferon-γ (IFN-γ, sold by Cosmobio, GZM-MG-IFN), and 10 μl of the aqueous DGE solution at 250 or 500 μM were added to the well. The plate was incubated for additional 12 hours. The concentration of NO2^− produced by oxidation of NO in the medium was then measured. As control groups, a group to which LPS or IFN-γ was not added and a group to which DGE was not added were provided.
After cultivation, 100 μl of 4% Griess' reagent (Sigma, G4410) was added to 100 μl of the medium, and the mixture was allowed to stand for 15 minutes at room temperature. The absorbance at 490 nm was then measured. NO2^− concentration in the medium was calculated with reference to a calibration curve prepared by using NaNO2 at a given concentration dissolved in the same medium as that described above. All of the measurements were carried out in triplicate.
(2) RAW264.7 cells were suspended in Dulbecco's modified Eagle's medium without phenol red containing 10% fetal bovine serum and 2 mM L-glutamine at a concentration of 3×10^5 cells/ml. 500 μl of the suspension was placed in each well of a 48-well microtiter plate. […] The concentration of NO2^− produced by oxidation of NO in the medium was measured. […]
After cultivation, 100 μl of 4% Griess' reagent was added to 100 μl of the culture supernatant, and the mixture was allowed to stand for 15 minutes at room temperature. The absorbance at 490 nm was then measured. NO2^− concentration in the medium was calculated with reference to a calibration curve prepared by using NaNO2 at a given concentration dissolved in the same medium as that described above.
RAW264.7 cells were suspended in Dulbecco's modified Eagle's medium without phenol red containing 10% fetal bovine serum and 2 mM L-glutamine at a concentration of 3×10^5 cells/ml. […] The concentration of NO2^− produced by oxidation of NO in the medium was then measured. […]
After cultivation, 100 μl of 4% Griess' reagent (Sigma, G4410) was added to 100 μl of the medium, and the mixture was allowed to stand for 15 minutes at room temperature. The absorbance at 490 nm was then measured. NO2^− concentration in the medium was calculated with reference to a calibration curve prepared by using NaNO2 at a given concentration dissolved in the same medium as that described above.

For test [2], the system named is Ehrlich's carcinoma cells. The test can be described thus: Carcinostatic activity test, Ehrlich's carcinoma. The following applies: for carcinostatic activity: mouse, in vivo; for 30-day survival number: 6 mice per group, control 0; for Average days of survival: 30 days observation, control 14.3. Format: in vivo, mice. As to the method: (2) Ehrlich's carcinoma cells were administered to 18 female ddY mice (5 weeks old, weighing about 25 g) intraperitoneally (1.2×10^6 cells/mouse). Observation was continued for 30 days. The average days of survival, the prolongation rate and the 30-day survival number were then calculated. Mice were divided into 3 group each consisting of 6 mice. One was a control group, and other two groups received DGE at 2 mg/kg and 20 mg/kg, respectively. DGE was intraperitoneally administered for 4 days from the day after the administration of cancer.

The subject of test [3] is Mouse melanoma cell B16BL6. The test can be described thus: Melanogenesis inhibition test. The test is classed as cell-based. The following applies: B16BL6, absorbance at 400 nm. The procedure: Mouse melanoma cell B16BL6 suspended in RPMI 1640 medium containing 10% fetal bovine serum was dispensed into a 6-well plate at 5×10^4 cells/well/2 ml medium and the plate was incubated at 37° C. On the 2nd day, 100 μl of a DGE solution (2 mg/ml to 0.2 mg/ml) was added thereto. On the 7th day, the medium was exchanged and, at the same time, 100 μl of the DGE solution (2 mg/ml to 0.2 mg/ml) was added thereto. On the 8th day, the cells were harvested. After DNA, RNA and protein were digested, the absorbance at 400 nm was measured to determine an activity of inhibiting melanogenesis.
Briefly, after removing the medium by aspiration, 0.3 ml of 0.25% trypsin dissolved in 20 mM EDTA solution was added to each well and the plate was incubated at 37° C. for 10 minutes. 2 ml of fresh medium was then added to the well and the cells were suspended. The suspension was transferred to a tube. After the medium was removed by centrifugation, the cells were suspended in 2 ml of PBS and centrifuged again. After the supernatant was removed, 30 μl of 50 mM sodium acetate buffer (pH 5.0) containing 5 mM manganese chloride and 1 μl of 70,000 U/ml DNase I (Takara Shuzo) were added to the cells. The mixture was mixed thoroughly and then incubated at 37° C. for 2 hours to digest DNA. 1 μl of 10 mg/ml ribonuclease A (Sigma) was then added to the mixture and the resultant mixture was incubated at 50° C. for 1 hour to digest RNA. Finally, 100 mM Tris-hydrochloride buffer (pH 7.8) containing 100 μg/ml proteinase K (Sigma), 0.1% Triton X and 10 mM EDTA was added thereto to make the total volume to 200 μl for 2×10^6 cells. After the mixture was incubated at 37° C. for 16 hours, the absorbance at 400 nm was measured.

Setting [4] is: DGE at 2 mg/kg intraperitoneally for 4 days.
Where [5] appears, read: DGE at 20 mg/kg intraperitoneally for 4 days.

“Also recorded” adds a separate entry of the source.

On to “5-L-glutathion-S-yl-2-hydroxy-3,7-dioxabicyclo[2.2.2]octan-1-ol [DGE-GSH]”, for which the “NO2− concentration in the medium” value in test [1] (LPS and IFN-γ, 10 μl of 1 mM DGE-GSH per 500 μl well, 16 hours, control 12.1 μM, no addition 4.6 μM) came out at 9.4 µM. For the same compound, in test [2], the carcinostatic activity entry is recorded as “also exhibited similar activities”. In test [3], the “activity of inhibiting melanogenesis” value is given as “also exhibited similar activities”.

Regarding `O=C1C=CC(CO)OC1O` [DGE, L-glycero-1,5-epoxy-1αβ,6-dihydroxy-cis-hex-3-en-2-one], the “inhibition of NO production, 5 hours pre-culture with DGE compared with 0.5 hour” value in test [1] (DGE added before LPS and IFN-γ) was “stronger inhibition of NO production”. Moreover, the “inhibition of NO production induced by LPS and IFN-γ” value in test [1] is “dose-dependently inhibited NO production; also recorded: exhibited an activity of inhibiting NO production”. Besides, in test [2] (setting [4]), the 30-day survival number is reported as 1 and the “Average days of survival” value was 23.7 days. In test [2] (setting [5]), the 30-day survival number is 3 and the “Average days of survival” value stood at 28.0 days. Further, the carcinostatic activity entry in test [2] is given as “exhibited a carcinostatic activity”. Further, in test [3], the “activity of inhibiting melanogenesis” value is “an activity of inhibiting melanogenesis was observed”.

As for `O=C1C=CC(CO)OC1O` [κ-DGE, D-glycero-1,5-epoxy-1αβ,6-dihydroxy-cis-hex-3-en-2-one], the “inhibition of NO production induced by LPS and IFN-γ” value in test [1] is reported as “exhibited a similar activity”. For the same compound, in test [2], the carcinostatic activity entry is given as “also exhibited similar activities”. In addition, the “activity of inhibiting melanogenesis” value in test [3] was “also exhibited similar activities”.
